Measured values reported in US20090246276A1, “Pharmaceutical Compositions” (priority 2008, published 2009).
Structures can show the parent of a compound that is named as a salt.

Key:
[1] = Solubility (37° C.) in 0.1N HCl, pH 4.5, pH 6.8; format: physicochemical; design: Solubility (37° C.): unit not given here; settings: hydrobromide
[2] = In-vitro dissolution, 900 ml medium (0.1N HCl, pH 4.5 acetate buffer, pH 6.8 or pH 7.5 phosphate buffer), USP Apparatus 1, 75 rpm, 37° C.; format: physicochemical
Protocol: The dissolution profile of the above pharmaceutical composition was determined under the dissolution conditions described below in Tables 1A, 1B, and 1C.

## CC(NC(C)(C)C)C(=O)c1cccc(Cl)c1 (stereo not shown) [Bupropion HBr, bupropion hydrobromide]
[1]; 0.1N HCl
  Solubility (37° C.): 190
[1]; pH 4.5
  Solubility (37° C.): 180
[1]; pH 6.8
  Solubility (37° C.): 200
[2]; Example 1 tablet, 0.1N HCl, 1 hr
  % Released: 12%
[2]; Example 1 tablet, 0.1N HCl, 2 hr
  % Released: 29%
[2]; Example 1 tablet, 0.1N HCl, 3 hr
  % Released: 45%
[2]; Example 1 tablet, 0.1N HCl, 4 hr
  % Released: 59%
[2]; Example 1 tablet, 0.1N HCl, 5 hr
  % Released: 73%
[2]; Example 1 tablet, 0.1N HCl, 6 hr
  % Released: 84%
[2]; Example 1 tablet, 0.1N HCl, 7 hr
  % Released: 93%
[2]; Example 1 tablet, 0.1N HCl, 8 hr
  % Released: 100%
[2]; Example 1 tablet, 0.1N HCl, 9 hr
  % Released: 103%
[2]; Example 1 tablet, 0.1N HCl, 10 hr
  % Released: 104%
[2]; Example 1 tablet, 0.1N HCl, 11 hr
  % Released: 104%
[2]; Example 1 tablet, 0.1N HCl, 12 hr
  % Released: 104%
[2]; Example 1 tablet, 0.1N HCl, 13 hr
  % Released: 103%
[2]; Example 1 tablet, 0.1N HCl, 14 hr
  % Released: 103%
[2]; Example 1 tablet, pH 4.5 acetate buffer, 1 hr
  % Released: 12%
[2]; Example 1 tablet, pH 4.5 acetate buffer, 2 hr
  % Released: 28%
[2]; Example 1 tablet, pH 4.5 acetate buffer, 3 hr
  % Released: 43%
[2]; Example 1 tablet, pH 4.5 acetate buffer, 4 hr
  % Released: 57%
[2]; Example 1 tablet, pH 4.5 acetate buffer, 5 hr
  % Released: 70%
[2]; Example 1 tablet, pH 4.5 acetate buffer, 6 hr
  % Released: 81%
[2]; Example 1 tablet, pH 4.5 acetate buffer, 7 hr
  % Released: 91%
[2]; Example 1 tablet, pH 4.5 acetate buffer, 8 hr
  % Released: 98%
[2]; Example 1 tablet, pH 4.5 acetate buffer, 9 hr
  % Released: 103%
[2]; Example 1 tablet, pH 4.5 acetate buffer, 10 hr
  % Released: 105%
[2]; Example 1 tablet, pH 4.5 acetate buffer, 11 hr
  % Released: 106%
[2]; Example 1 tablet, pH 4.5 acetate buffer, 12 hr
  % Released: 106%
[2]; Example 1 tablet, pH 4.5 acetate buffer, 13 hr
  % Released: 106%
[2]; Example 1 tablet, pH 4.5 acetate buffer, 14 hr
  % Released: 106%
[2]; Example 1 tablet, pH 4.5 acetate buffer, 15 hr
  % Released: 105%
[2]; Example 1 tablet, pH 4.5 acetate buffer, 16 hr
  % Released: 105%
[2]; Example 1 tablet, pH 6.8 phosphate buffer, 1 hr
  % Released: 12%
[2]; Example 1 tablet, pH 6.8 phosphate buffer, 2 hr
  % Released: 27%
[2]; Example 1 tablet, pH 6.8 phosphate buffer, 3 hr
  % Released: 42%
[2]; Example 1 tablet, pH 6.8 phosphate buffer, 4 hr
  % Released: 56%
[2]; Example 1 tablet, pH 6.8 phosphate buffer, 5 hr
  % Released: 69%
[2]; Example 1 tablet, pH 6.8 phosphate buffer, 6 hr
  % Released: 80%
[2]; Example 1 tablet, pH 6.8 phosphate buffer, 7 hr
  % Released: 88%
[2]; Example 1 tablet, pH 6.8 phosphate buffer, 8 hr
  % Released: 95%
[2]; Example 1 tablet, pH 6.8 phosphate buffer, 9 hr
  % Released: 98%
[2]; Example 1 tablet, pH 6.8 phosphate buffer, 10 hr
  % Released: 100%
[2]; Example 1 tablet, pH 6.8 phosphate buffer, 11 hr
  % Released: 100%
[2]; Example 1 tablet, pH 6.8 phosphate buffer, 12 hr
  % Released: 100%
[2]; Example 1 tablet, pH 6.8 phosphate buffer, 13 hr
  % Released: 101%
[2]; Example 1 tablet, pH 6.8 phosphate buffer, 14 hr
  % Released: 100%
[2]; Example 1 tablet, pH 6.8 phosphate buffer, 15 hr
  % Released: 99%
[2]; Example 1 tablet, pH 6.8 phosphate buffer, 16 hr
  % Released: 99%
[2]; Example 2 tablet, 0.1N HCl, 1 hr
  % Released: 12%
[2]; Example 2 tablet, 0.1N HCl, 2 hr
  % Released: 29%
[2]; Example 2 tablet, 0.1N HCl, 4 hr
  % Released: 61%
[2]; Example 2 tablet, 0.1N HCl, 8 hr
  % Released: 100%
[2]; Example 2 tablet, 0.1N HCl, 12 hr
  % Released: 103%
[2]; Example 2 tablet, pH 4.5 acetate buffer, 1 hr
  % Released: 12%
[2]; Example 2 tablet, pH 4.5 acetate buffer, 2 hr
  % Released: 28%
[2]; Example 2 tablet, pH 4.5 acetate buffer, 4 hr
  % Released: 57%
[2]; Example 2 tablet, pH 4.5 acetate buffer, 8 hr
  % Released: 97%
[2]; Example 2 tablet, pH 4.5 acetate buffer, 16 hr
  % Released: 101%
[2]; Example 2 tablet, pH 6.8 phosphate buffer, 1 hr
  % Released: 11%
[2]; Example 2 tablet, pH 6.8 phosphate buffer, 2 hr
  % Released: 27%
[2]; Example 2 tablet, pH 6.8 phosphate buffer, 4 hr
  % Released: 55%
[2]; Example 2 tablet, pH 6.8 phosphate buffer, 8 hr
  % Released: 94%
[2]; Example 2 tablet, pH 6.8 phosphate buffer, 12 hr
  % Released: 97%
[2]; Example 2 tablet, pH 6.8 phosphate buffer, 16 hr
  % Released: 96%
[2]; Example 3 tablet, 0.1N HCl, 1 hr
  % Released: 13%
[2]; Example 3 tablet, 0.1N HCl, 2 hr
  % Released: 31%
[2]; Example 3 tablet, 0.1N HCl, 4 hr
  % Released: 62%
[2]; Example 3 tablet, 0.1N HCl, 12 hr
  % Released: 104%
[2]; Example 3 tablet, 0.1N HCl, 16 hr
  % Released: 103%
[2]; Example 3 tablet, pH 4.5 acetate buffer, 1 hr
  % Released: 12%
[2]; Example 3 tablet, pH 4.5 acetate buffer, 2 hr
  % Released: 28%
[2]; Example 3 tablet, pH 4.5 acetate buffer, 4 hr
  % Released: 58%
[2]; Example 3 tablet, pH 4.5 acetate buffer, 8 hr
  % Released: 99%
[2]; Example 3 tablet, pH 4.5 acetate buffer, 12 hr
  % Released: 103%
[2]; Example 3 tablet, pH 6.8 phosphate buffer, 1 hr
  % Released: 11%
[2]; Example 3 tablet, pH 6.8 phosphate buffer, 2 hr
  % Released: 27%
[2]; Example 3 tablet, pH 6.8 phosphate buffer, 4 hr
  % Released: 57%
[2]; Example 3 tablet, pH 6.8 phosphate buffer, 8 hr
  % Released: 98%
[2]; Example 3 tablet, pH 6.8 phosphate buffer, 12 hr
  % Released: 100%
[2]; Example 3 tablet, pH 6.8 phosphate buffer, 16 hr
  % Released: 99%
[2]; Example 4 tablet, 0.1N HCl, 1 hr
  % Released: 11%
[2]; Example 4 tablet, 0.1N HCl, 2 hr
  % Released: 27%
[2]; Example 4 tablet, 0.1N HCl, 4 hr
  % Released: 56%
[2]; Example 4 tablet, 0.1N HCl, 8 hr
  % Released: 97%
[2]; Example 4 tablet, 0.1N HCl, 12 hr
  % Released: 105%
[2]; Example 4 tablet, 0.1N HCl, 16 hr
  % Released: 103%
[2]; Example 5 tablet, 0.1N HCl, 1 hr
  % Released: 9%
[2]; Example 5 tablet, 0.1N HCl, 2 hr
  % Released: 20%
[2]; Example 5 tablet, 0.1N HCl, 4 hr
  % Released: 43%
[2]; Example 5 tablet, 0.1N HCl, 8 hr
  % Released: 82%
[2]; Example 5 tablet, 0.1N HCl, 12 hr
  % Released: 98%
[2]; Example 5 tablet, 0.1N HCl, 16 hr
  % Released: 99%
[2]; Example 6 tablet, 0.1N HCl, 1 hr
  % Released: 13%
[2]; Example 6 tablet, 0.1N HCl, 2 hr
  % Released: 30%
[2]; Example 6 tablet, 0.1N HCl, 4 hr
  % Released: 61%
[2]; Example 6 tablet, 0.1N HCl, 8 hr
  % Released: 98%
[2]; Example 6 tablet, 0.1N HCl, 12 hr
  % Released: 100%
[2]; Example 6 tablet, 0.1N HCl, 16 hr
  % Released: 100%
[2]; Example 7 tablet, 0.1N HCl, 1 hr
  % Released: 2%
[2]; Example 7 tablet, 0.1N HCl, 8 hr
  % Released: 36%
[2]; Example 7 tablet, 0.1N HCl, 12 hr
  % Released: 57%
[2]; Example 7 tablet, 0.1N HCl, 16 hr
  % Released: 74%
